Our source for the IC50 values is US20050009894A1 (Aventis Pharma S.A., priority 2001, published 2005).

T1 sequence (P35968 786-1356 limits assumed): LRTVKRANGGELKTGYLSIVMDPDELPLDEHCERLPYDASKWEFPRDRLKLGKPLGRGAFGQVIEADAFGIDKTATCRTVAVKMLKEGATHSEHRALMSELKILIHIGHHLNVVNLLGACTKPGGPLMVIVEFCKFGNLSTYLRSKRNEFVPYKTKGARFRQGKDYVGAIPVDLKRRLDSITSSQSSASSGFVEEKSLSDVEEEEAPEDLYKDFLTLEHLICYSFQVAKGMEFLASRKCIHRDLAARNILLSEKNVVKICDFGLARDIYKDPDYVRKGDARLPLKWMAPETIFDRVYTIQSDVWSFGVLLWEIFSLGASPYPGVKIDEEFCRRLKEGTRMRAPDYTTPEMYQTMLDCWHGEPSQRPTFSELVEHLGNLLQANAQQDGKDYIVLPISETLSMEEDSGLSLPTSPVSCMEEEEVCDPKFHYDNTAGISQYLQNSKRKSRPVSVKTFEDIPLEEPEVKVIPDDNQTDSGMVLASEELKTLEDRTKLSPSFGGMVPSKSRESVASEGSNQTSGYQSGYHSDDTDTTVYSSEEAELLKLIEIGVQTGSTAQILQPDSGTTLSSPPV

The test addresses T1, human KDR enzyme (Homo sapiens, UniProt P35968).
T1 construct: The cytoplasmic domain of human KDR enzyme is cloned in the form of a GST fusion; GST; made in house; host or cells: SF21 insect cells (baculovirus, pFastBac)
In words: Phosphorylation of the substrate PLCγ by the enzyme KDR in vitro (flashplate technique). The test is classed as biochemical. The note with it: Table VII, degrees of activity by IC50 range; read-out: Activity. The procedure, abridged: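 GST-fused human KDR cytoplasmic domain (Sf21 baculovirus, ~60% pure; 100 ng/well) phosphorylating 2 μg GST-PLCγ SH2-SH3 fragment in MOPS pH 7.2 with MgCl2/MnCl2, 1 h at 37° C. Started with γ33P-ATP plus cold ATP (2 μM in start solution); flashplate radioactivity. % inhibition vs no-compound control; IC50 from dose-response curves.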
Regarding `CC(C)OCCCNC(=O)c1ccc2[nH]c(-c3n[nH]c4ccccc34)nc2c1` [Example 50, 2-(1H-Indazol-3-yl)-1H-benzoimidazole-5-carboxylic acid (3-isopropoxy-propyl)-amide], the IC50 is 0.3 to 3 µM.

For `O=C(NCC1CCOCC1)c1ccc2[nH]c(-c3n[nH]c4ccccc34)nc2c1` [Example 64, 2-(1H-Indazol-3-yl)-1H-benzoimidazole-5-carboxylic acid (tetrahydro-pyran-4-ylmethyl)-amide], the IC50 was 0.3 to 3 µM.

As for `COc1cc(-c2ccc3nc(-c4[nH]nc5ccccc45)[nH]c3c2)cc(OC)c1OC` [Example 127, 3-[6-(3,4,5-Trimethoxy-phenyl)-1H-benzoimidazol-2-yl]-2H-indazole], the IC50 is 0.3 to 3 µM.

On to `Cc1ccc(C(=O)COc2cc(-c3nc4ccccc4[nH]3)[nH]n2)cc1` [Example 198, 2-[5-(1H-Benzoimidazol-2-yl)-1H-pyrazol-3-yloxy]-1-p-tolyl-ethanone], for which the IC50 is over 3 µM.

Turning to `O=C(NCc1ccc(-c2ccccc2Cl)cc1)c1ccc2[nH]c(-c3n[nH]c4ccccc34)nc2c1` [Example 171, 2-(1H-Indazol-3-yl)-1H-benzoimidazole-5-carboxylic acid (2′-chloro-biphenyl-4-ylmethyl)-amide], the IC50 lay within 0.3 to 3 µM.

In the case of `Clc1cc(Cl)cc(-c2ccc3nc(-c4[nH]nc5ccccc45)[nH]c3c2)c1` [Example 104, 3-[6-(3,5-Dichloro-phenyl)-1H-benzoimidazol-2-yl]-2H-indazole], the IC50 was over 3 µM.

As for `O=C(NCc1c(F)cc(Cl)cc1F)c1ccc2[nH]c(-c3n[nH]c4ccccc34)nc2c1` [Example 176, 2-(1H-Indazol-3-yl)-1H-benzoimidazole-5-carboxylic acid (2,6-difluoro-4-chloro-benzyl)amide], the IC50 was under 0.3 µM.

Turning to `CC(C)c1ccc(CNC(=O)c2ccc3[nH]c(-c4n[nH]c5ccccc45)nc3c2)cc1` [Example 52, 2-(1H-Indazol-3-yl)-1H-benzoimidazole-5-carboxylic acid 4-isopropyl-benzylamide], the IC50 is 0.3 to 3 µM.

`Cc1nn(C)cc1CNC(=O)c1ccc2[nH]c(-c3n[nH]c4ccccc34)nc2c1` [Example 43, 2-(1H-Indazol-3-yl)-1H-benzoimidazole-5-carboxylic acid (1,3-dimethyl-1H-pyrazol-4-ylmethyl)-amide]: the IC50 lay within 0.3 to 3 µM.

On to `O=C(COc1cc(-c2nc3ccccc3[nH]2)[nH]n1)c1cc(-c2ccccc2)no1` [Example 203, 2-[5-(1H-Benzoimidazol-2-yl)-1H-pyrazol-3-yloxy]-1-(3-phenyl-isoxazol-5-yl)-ethanone], for which the IC50 is over 3 µM.

Take `Cc1cccc(CNC(=O)c2ccc3[nH]c(-c4n[nH]c5ccccc45)nc3c2)c1` [Example 71, 2-(1H-Indazol-3-yl)-1H-benzoimidazole-5-carboxylic acid 3-methyl-benzylamide]: the IC50 was under 0.3 µM.

Take `O=C(COCc1ccccc1)Oc1cc(-c2nc3ccccc3[nH]2)[nH]n1` [Example 216, Benzyloxy-acetic acid 5-(1H-benzoimidazol-2-yl)-1H-pyrazol-3-yl ester]: the IC50 is over 3 µM.

In the case of `O=C(NCc1ccc(-c2cc(Cl)cc(Cl)c2)cc1)c1ccc2[nH]c(-c3n[nH]c4ccccc34)nc2c1` [Example 163, 2-(1H-Indazol-3-yl)-1H-benzoimidazole-5-carboxylic acid (3′,5′-dichloro-biphenyl-4-ylmethyl)-amide], the IC50 was over 3 µM.

`O=C(Nc1ccccc1)c1cccc2nc(-c3n[nH]c4ccccc34)[nH]c12` [Example 94, 2-(1H-Indazol-3-yl)-3H-benzoimidazole-4-carboxylic acid phenylamide]: the IC50 fell in the range of 0.3 to 3 µM.

Turning to `O=C(NCc1cccc(C(F)(F)F)c1)c1cccc2nc(-c3n[nH]c4ccccc34)[nH]c12` [Example 88, 2-(1H-Indazol-3-yl)-3H-benzoimidazole-4-carboxylic acid 3-trifluoromethyl-benzylamide], the IC50 was over 3 µM.

With `c1ccc2[nH]c(-c3cc(OCCN4CCOCC4)n[nH]3)nc2c1` [Example 195, 2-[5-(2-Morpholin-4-yl-ethoxy)-2H-pyrazol-3-yl]-1H-benzoimidazole], the IC50 was over 3 µM.

`O=C(NCc1cccc2ccccc12)c1ccc2[nH]c(-c3n[nH]c4ccccc34)nc2c1` [Example 32, 2-(1H-Indazol-3-yl)-1H-benzoimidazole-5-carboxylic acid (naphthalen-1-ylmethyl)-amide]: the IC50 fell in the range of 0.3 to 3 µM.

As for `Fc1ccc(-c2ccc3nc(-c4[nH]nc5ccccc45)[nH]c3c2)cc1Cl` [Example 103, 3-[6-(3-Chloro-4-fluoro-phenyl)-1H-benzoimidazol-2-yl]-2H-indazole], the IC50 lay in the range of 0.3 to 3 µM.

Consider `Fc1cc(-c2ccc3nc(-c4[nH]nc5ccccc45)[nH]c3c2)ccc1-c1ccccc1` [Example 131, 3-[6-(2-Fluoro-biphenyl-4-yl)-1H-benzoimidazol-2-yl]-2H-indazole], for which the IC50 was over 3 µM.

In the case of `CNC(=O)c1ccc2[nH]c(-c3n[nH]c4ccccc34)nc2c1` [Example 148, 2-(1H-Indazol-3-yl)-1H-benzoimidazole-5-carboxylic acid methylamide], the IC50 was in the range of 0.3 to 3 µM.

For `O=C(NCc1ccc2c(c1)CCO2)c1ccc2[nH]c(-c3n[nH]c4ccccc34)nc2c1` [Example 58, 2-(1H-Indazol-3-yl)-1H-benzoimidazole-5-carboxylic acid (2,3-dihydro-benzofuran-5-ylmethyl)-amide], the IC50 was under 0.3 µM.

For the molecule `NS(=O)(=O)c1ccc(CNC(=O)c2cccc3nc(-c4n[nH]c5ccccc45)[nH]c23)cc1` [Example 73, 2-(1H-Indazol-3-yl)-3H-benzoimidazole-4-carboxylic acid 4-sulfamoyl-benzylamide], the IC50 was in the range of 0.3 to 3 µM.

Take `O=C(Oc1cc(-c2nc3ccccc3[nH]2)[nH]n1)c1ccc(-c2ccccc2)cc1` [Example 225, Biphenyl-4-carboxylic acid 5-(1H-benzoimidazol-2-yl)-1H-pyrazol-3-yl ester]: the IC50 is over 3 µM.

With `COc1coc(CNC(=O)c2ccc3[nH]c(-c4n[nH]c5ccccc45)nc3c2)cc1=O` [Example 146], the IC50 lay within 0.3 to 3 µM.

For the molecule `O=C(COc1cc(-c2nc3ccccc3[nH]2)[nH]n1)Nc1ccccc1` [Example 204, 2-[5-(1H-Benzoimidazol-2-yl)-1H-pyrazol-3-yloxy]-N-phenyl-acetamide], the IC50 was over 3 µM.

Regarding `Clc1cccc(-c2ccc3nc(-c4[nH]nc5ccccc45)[nH]c3c2)c1` [Example 113, 3-[6-(3-Chloro-phenyl)-1H-benzoimidazol-2-yl]-2H-indazole], the IC50 was 0.3 to 3 µM.

Turning to `O=C(NCc1ccc2c(c1)CCO2)c1cccc2nc(-c3n[nH]c4ccccc34)[nH]c12` [Example 87, 2-(1H-Indazol-3-yl)-3H-benzoimidazole-4-carboxylic acid (2,3-dihydro-benzofuran-5-ylmethyl)-amide], the IC50 is over 3 µM.

Take `Clc1ccc(-c2ccc3nc(-c4[nH]nc5ccccc45)[nH]c3c2)c(Cl)c1` [Example 98, 3-[6-(2,4-Dichloro-phenyl)-1H-benzoimidazol-2-yl]-2H-indazole]: the IC50 was over 3 µM.

Regarding `COc1ccc(-c2ccc3nc(-c4[nH]nc5ccccc45)[nH]c3c2)cc1OC` [Example 120, 3-[6-(3,4-Dimethoxy-phenyl)-1H-benzoimidazol-2-yl]-2H-indazole], the IC50 is 0.3 to 3 µM.

As for `FC(F)(F)c1ccc(COc2cc(-c3nc4ccccc4[nH]3)[nH]n2)cc1` [Example 187, 2-[5-(4-Trifluoromethyl-benzyloxy)-2H-pyrazol-3-yl]-1H-benzoimidazole], the IC50 is over 3 µM.

With `N#Cc1cccc(COc2cc(-c3nc4ccccc4[nH]3)[nH]n2)c1` [Example 186, 3-[5-(1H-Benzoimidazol-2-yl)-1H-pyrazol-3-yloxymethyl]-benzonitrile], the IC50 was over 3 µM.

`O=C(NCc1cccnc1)c1ccc2[nH]c(-c3n[nH]c4ccccc34)nc2c1` [Example 38, 2-(1H-Indazol-3-yl)-1H-benzoimidazole-5-carboxylic acid (pyridin-3-ylmethyl)-amide]: the IC50 fell in the range of 0.3 to 3 µM.

Consider `Cc1cc(Cl)cc(F)c1CNC(=O)c1ccc2[nH]c(-c3n[nH]c4ccccc34)nc2c1` [Example 179, 2-(1H-Indazol-3-yl)-1H-benzoimidazole-5-carboxylic acid (2-fluoro-4-chloro-6-methyl-benzyl)amide], for which the IC50 was under 0.3 µM.

For `O=C(COc1cc(-c2nc3ccccc3[nH]2)[nH]n1)c1ccc(-c2ccccc2)cc1` [Example 200, 2-[5-(1H-Benzoimidazol-2-yl)-1H-pyrazol-3-yloxy]-1-biphenyl-4-yl-ethanone], the IC50 is over 3 µM.

On to `O=C(NCc1ccc(F)cc1F)c1ccc2[nH]c(-c3n[nH]c4ccccc34)nc2c1` [Example 155, 2-(1H-Indazol-3-yl)-1H-benzoimidazole-5-carboxylic acid 2,4-difluoro-benzylamide], for which the IC50 was in the range of 0.3 to 3 µM.

On to `OCc1ccc(-c2ccc3nc(-c4[nH]nc5ccccc45)[nH]c3c2)cc1` [Example 141, {4-[2-(2H-Indazol-3-yl)-3H-benzoimidazol-5-yl]-phenyl}-methanol], for which the IC50 was in the range of 0.3 to 3 µM.

For `CN1CCN(C(=O)c2ccc3[nH]c(-c4n[nH]c5ccccc45)nc3c2)CC1` [Example 151, [2-(1H-Indazol-3-yl)-1H-benzoimidazol-5-yl]-(4-methyl-piperazin-1-yl)-methanone], the IC50 fell in the range of 0.3 to 3 µM.

As to `COc1ccc(C(=O)COc2cc(-c3nc4ccccc4[nH]3)[nH]n2)cc1` [Example 212, 2-[5-(1H-Benzoimidazol-2-yl)-1H-pyrazol-3-yloxy]-1-(4-methoxy-phenyl)-ethanone], the IC50 was over 3 µM.

Turning to `O=C(O)CCc1ccc(-c2ccc3nc(-c4[nH]nc5ccccc45)[nH]c3c2)cc1` [Example 140, 3-{4-[2-(2H-Indazol-3-yl)-3H-benzoimidazol-5-yl]-phenyl}-propionic acid], the IC50 was over 3 µM.
